In patent US20210300832A1, “Micronutrient Concentrate and use thereof” (FINE AGROCHEMICALS LIMITED, priority 2018, published 2021):
Where two headings read alike, the source gives them in different places.

Experiment: Solubility test of metal salts/chelates in glycol and other solvents
Method: The following mixtures were prepared from anhydrous copper-EDTA and the solvents described below.
Each time 1,2-propanediol was used as solvent. EDTA is ethylene-diamine tetra-acetic acid; DTPA is diethylenetriaminepentaacetic acid. […]

[1] = 1 wt % Cu.EDTA in the named solvent, same procedure as examples 1-9

Row | SMILES | clear solution with 1 wt % Cu.EDTA (comparison solvents) | clear solution with 1 wt % Cu.EDTA (comparison solvents) [1]
1 | CC(C)O [iso-propylalcohol] | None of these solvents were able to provide a clear solution | 
2 | C[S+](C)[O-] [DMSO] | None of these solvents were able to provide a clear solution | 
3 | CC(C)=O [acetone] |  | None of these solvents were able to provide a clear solution
4 | CC(N)CO (centres unmarked) [2-aminopropanol] | None of these solvents were able to provide a clear solution | 
5 | OCCCCO [1,4-butanediol] |  | None of these solvents were able to provide a clear solution
